According to the supplement of paper PMC11061612:

What was measured:
[1] = tested on: ALL-SIL (T-Lymphoblastic Leukemia); experiment: Bliss excess, mean over the matrix (fraction); higher = more synergy
How it was run: (§1)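 After 24 hours at 37°C and 5% CO2 in 1536-well plates, cells in DMEM/F12 or RPMI plus 10% FBS received two-drug dose matrices for 72 hours. Viability came from CellTiter-Glo 2.0 luminescence and was scaled as inhibition, anchored at 0 by vehicle wells and at 1 by blank wells. Combination Emax is taken as the second-highest inhibition in the matrix, and Bliss excess as the observed combination effect less EA + EB − EA·EB, with EA and EB the single-agent effects.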

[2] = tested on: CADO-ES1 (Ewing's Sarcoma); experiment: as above
How it was run: as §1

[3] = tested on: EJM (Plasma Cell Myeloma); experiment: as above
How it was run: as §1

[4] = tested on: HCC1937 (Breast Carcinoma); experiment: as above
How it was run: as §1

[5] = tested on: OACM5-1 (Esophageal Adenocarcinoma); experiment: as above
How it was run: as §1

[6] = tested on: SK-LU-1 (Lung Adenocarcinoma); experiment: as above
How it was run: as §1

[7] = tested on: ALL-SIL (T-Lymphoblastic Leukemia); experiment: combination Emax (second highest fraction inhibited in the dose matrix, 72 h); higher = more inhibition; extreme values may be limits of the assay
How it was run: as §1

[8] = tested on: CADO-ES1 (Ewing's Sarcoma); experiment: as above
How it was run: as §1

[9] = tested on: EJM (Plasma Cell Myeloma); experiment: as above
How it was run: as §1

EW-1 (Ewing's Sarcoma) = experiment: as above
How it was run: as §1

[10] = tested on: HCC1500 (Breast Carcinoma); experiment: as above
How it was run: as §1

[11] = tested on: HCC2998 (Colorectal Carcinoma); experiment: as above
How it was run: as §1

Hey (Ovarian Carcinoma) = experiment: as above
How it was run: as §1

[12] = tested on: LC-1-sq (Squamous Cell Lung Carcinoma); experiment: as above
How it was run: as §1

[13] = tested on: NCI-H1092 (Small Cell Lung Carcinoma); experiment: as above
How it was run: as §1

[14] = tested on: NCI-H1838 (Lung Adenocarcinoma); experiment: as above
How it was run: as §1

[15] = tested on: NCI-H2122 (Lung Adenocarcinoma); experiment: as above
How it was run: as §1

[16] = tested on: NCI-H650 (Lung Adenocarcinoma); experiment: as above
How it was run: as §1

[17] = tested on: OACM5-1 (Esophageal Adenocarcinoma); experiment: as above
How it was run: as §1

[18] = tested on: SK-LU-1 (Lung Adenocarcinoma); experiment: as above
How it was run: as §1
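For Bliss excess, mean over the matrix in this document: after 72 h of two-drug dosing.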

Structure (SMILES)	Bliss excess [1]	Bliss excess [2]	Bliss excess [3]	Bliss excess [4]	Bliss excess [5]	Bliss excess [6]	combination Emax [7]	combination Emax [8]	combination Emax [9]	combination Emax (EW-1 (Ewing's Sarcoma))	combination Emax [10]	combination Emax [11]	combination Emax (Hey (Ovarian Carcinoma))	combination Emax [12]	combination Emax [13]	combination Emax [14]	combination Emax [15]	combination Emax [16]	combination Emax [17]	combination Emax [18]
CN(CCO)CC[C@H](CSc1ccccc1)Nc1ccc(S(=O)(=O)NC(=O)c2ccc(N3CCC([C@@H](O)c4ccccc4-c4ccc(Cl)cc4)CC3)cc2)cc1S(=O)(=O)C(F)(F)F [AZD4320] + Cc1cc2ncnn2cc1Nc1ncc2c(n1)n(C1CCOCC1)c(=O)n2C [AZD7648] (first compound max 1 µM, 7x7, partner max 10 µM)	-0.0083	-0.0361	0.0347	-0.0352	-0.0545	0.0207	1	0.608	0.382	0.745	0.998	0.492	0.247	0.158	0.855	0.289	0.273	0.134	0.577	0.421
C[C@@H](c1ccc2nccn2c1)n1nnc2ncc(-c3cnn(C)c3)nc21 [Savolitinib] + Cc1c2c(nn1C)CSCc1cc(n(C)n1)CSc1cc(c3ccccc3c1)OCCCc1c(C(=O)O)n(C)c3c-2c(Cl)ccc13 [AZD5991] (first compound max 1 µM, 7x7, partner max 1 µM)	-0.0355	0.0151	0.0066	-0.0386	-0.0598	-0.0291	0.264	0.346	0.232	0.2	0.428	0.454	0.127	0.278	0.46	0.28	0.64	0.2	0.896	0.329
CN(CCO)CC[C@H](CSc1ccccc1)Nc1ccc(S(=O)(=O)NC(=O)c2ccc(N3CCC([C@@H](O)c4ccccc4-c4ccc(Cl)cc4)CC3)cc2)cc1S(=O)(=O)C(F)(F)F [AZD4320] + C1CN(CCC1(C(=O)N[C@@H](CCO)C2=CC=C(C=C2)Cl)N)C3=NC=NC4=C3C=CN4 [Capivasertib] (first compound max 1 µM, 7x7, partner max 3 µM)	-0.0464	-0.0387	-0.0272	-0.0881	-0.0272	-0.0558	1	0.613	0.525	0.67	0.993	0.881	0.106	0.134	0.813	0.178	0.411	0.134	0.617	0.267
CN(CCO)CC[C@H](CSc1ccccc1)Nc1ccc(S(=O)(=O)NC(=O)c2ccc(N3CCC([C@@H](O)c4ccccc4-c4ccc(Cl)cc4)CC3)cc2)cc1S(=O)(=O)C(F)(F)F [AZD4320] + C[C@@H]1COCCN1C2=NC(=NC(=C2)C3(CC3)[S@](=N)(=O)C)C4=C5C=CNC5=NC=C4 [AZD6738] (first compound max 1 µM, 7x7, partner max 10 µM)	0.0038	-0.0031	0.0488	-0.0241	0.0144	-0.0884	1	0.939	0.929	0.997	1	0.968	0.869	0.845	0.915	0.694	0.972	0.415	0.663	0.663
C[C@@H](c1ccc2nccn2c1)n1nnc2ncc(-c3cnn(C)c3)nc21 [Savolitinib] + CC1(C)CCC(CN2CCN(c3ccc(C(=O)NS(=O)(=O)c4ccc(NCC5CCOCC5)c([N+](=O)[O-])c4)c(Oc4cnc5[nH]ccc5c4)c3)CC2)=C(c2ccc(Cl)cc2)C1 [Venetoclax] (first compound max 1 µM, 7x7, partner max 1 µM)	-0.0072	-0.0549	-0.0127	-0.0884	-0.0637	-0.0258	0.675	0.695	0.232	0.112	0.629	0.105	0.0566	0.116	0.248	0.146	0.196	0.0996	0.166	0.273
Cc1nc(Nc2ncc(C(=O)Nc3c(C)cccc3Cl)s2)cc(N2CCN(CCO)CC2)n1 [Dasatinib] + CC(=O)Nc1cccc(-n2c(=O)n(C3CC3)c(=O)c3c(Nc4ccc(I)cc4F)n(C)c(=O)c(C)c32)c1 [Trametinib] (first compound max 2 µM, 7x7, partner max 1 µM)	0.0316	-0.0435	-0.0342	-0.0262	-0.0912	-0.0889	1	0.151	0.153	0.153	0.172	1	0.858	0.166	0.125	0.367	0.942	0.747	0.417	0.511
Cc1c2c(nn1C)CSCc1cc(n(C)n1)CSc1cc(c3ccccc3c1)OCCCc1c(C(=O)O)n(C)c3c-2c(Cl)ccc13 [AZD5991] + Cn1cnc2c(F)c(Nc3ccc(Br)cc3Cl)c(C(=O)NOCCO)cc21 [Selumetinib] (first compound max 1 µM, 7x7, partner max 3 µM)	0.0068	-0.0208	0.0088	0.0328	0.0491	-0.0225	1	0.874	0.983	0.273	0.41	0.998	0.563	0.311	0.608	0.511	0.935	0.432	0.94	0.476
COc1cc2ncnc(Nc3ccc(F)c(Cl)c3)c2cc1OCCCN1CCOCC1 [Gefitinib] + CC(C)n1c(=O)n(C)c2cnc3cc(F)c(-c4ccc(OCCCN5CCCCC5)nc4)cc3c21 [AZD1390] (first compound max 10 µM, 7x7, partner max 0.3 µM)	-0.0699	-0.0634	-0.0395	-0.108	-0.112	-0.0818	0.301	0.123	0.133	0.344	0.113	0.105	0.0522	0.265	0.0586	0.19	0.626	0.106	0.191	0.245
